Results on 7 molecules are retold here after ChEMBL document CHEMBL3112488, “Discovery of C-(1-aryl-cyclohexyl)-methylamines as selective, orally available inhibitors of dipeptidyl peptidase IV” (Bioorg Med Chem Lett, 2014).

Data set [1] is described as follows: Intrinsic clearance in rat liver microsomes. The format is ADME. (Liver microsomes are a subcellular fraction often used to study metabolism.)
The next data set concerns the target Dipeptidyl peptidase 8 (Homo sapiens, UniProt Q6V1X1). Kind of data set: Inhibition of human recombinant DPP8.
The target of data set [2] is Voltage-gated inwardly rectifying potassium channel KCNH2 (Homo sapiens, UniProt Q12809). The data set is described as follows: Inhibition of human ERG by dofetilide binding assay.
Data set [3] in a line: Oral bioavailability in rat at 3 mg/kg administered in 10% PEG300/90% PBS. The format is ADME, organism-based. The conditions noted are these: in vivo.
Data set [4] can be described thus: Half life in rat at 1 mg/kg, iv administered in 10% PEG300/90% PBS. The data set is classed as ADME, organism-based. Also on record: dose 1 mg/kg, route intravenous. The conditions noted are these: in vivo.
Data set [5] is filed under the species Rattus norvegicus. The data set is described as follows: animal or person. The conditions noted are these: Sprague-Dawley, Plasma, po, 8 h, read-out: INH.
A short description of data set [6]: Clearance in rat at 1 mg/kg, iv administered in 10% PEG300/90% PBS. The format is ADME, organism-based. Also on record: dose 1 mg/kg, route intravenous. The conditions noted are these: in vivo.
Another data set deals with Dipeptidyl peptidase 9 (Homo sapiens, UniProt Q86TI2). Kind of data set: Inhibition of human recombinant DPP9.
Data set [7] can be described thus: Permeability from apical to basolateral side in human Caco2 cells. The format is ADME, cell-based. The conditions noted are these: Caco-2, read-out: permeability. For orientation: Passage across Caco-2 layers is used to estimate intestinal permeability.
Data set [8] in a line: Volume of distribution at steady state in rat at 1 mg/kg, iv administered in 10% PEG300/90% PBS. The data set is classed as ADME, organism-based. The arrangement: dose 1 mg/kg, route intravenous. As to conditions: in vivo, read-out: Vdss.
Data set [9] can be described thus: Permeability from basolateral to apical side in human Caco2 cells. As to conditions: Caco-2, read-out: permeability. The data set is classed as ADME, cell-based.
A further data set addresses Cytochrome P450 2D6 (Homo sapiens, UniProt P10635). Kind of data set: Inhibition of CYP2D6 (unknown origin). The data set is classed as ADME.
A short description of data set [10]: AUC (0 to 8 hrs) in rat at 3 mg/kg, po administered in 10% PEG300/90% PBS. The format is ADME, organism-based. The arrangement: time < 8 hr, dose 3 mg/kg, route oral. The conditions noted are these: plasma.
Data set [11] in a line: Tmax in rat at 3 mg/kg, po administered in 10% PEG300/90% PBS. The data set is classed as ADME, organism-based. The arrangement: dose 3 mg/kg, route oral. As to conditions: in vivo.
The species named for data set [12] is Rattus norvegicus. Kind of data set: animal or person. As to conditions: Sprague-Dawley, Plasma, po, 0.5 h, read-out: INH.
Data set [13] can be described thus: Cmax in rat at 3 mg/kg, po administered in 10% PEG300/90% PBS. The format is ADME, organism-based. As to conditions: in vivo. The arrangement: dose 3 mg/kg, route oral.
Data set [14] can be described thus: Cmax in rat at 3 mg/kg, po administered in PBS buffer at pH 6.8. The format is ADME, organism-based. Also on record: dose 3 mg/kg, route oral. The conditions noted are these: in vivo.
Data set [15] is described as follows: Tmax in rat at 3 mg/kg, po administered in PBS buffer at pH 6.8. The arrangement: dose 3 mg/kg, route oral. As to conditions: in vivo. The format is ADME, organism-based.
The nature of data set [16]: AUC (0 to 8 hrs) in rat at 3 mg/kg, po administered in PBS buffer at pH 6.8. The arrangement: time < 8 hr, dose 3 mg/kg, route oral. The format is ADME, organism-based. The conditions noted are these: plasma.
The nature of data set [17]: Volume of distribution at steady state in rat at 1 mg/kg, iv administered in PBS buffer at pH 6.8. The format is ADME, organism-based. The arrangement: dose 1 mg/kg, route intravenous. As to conditions: in vivo, read-out: Vdss.
Data set [18] is described as follows: Clearance in rat at 1 mg/kg, iv administered in PBS buffer at pH 6.8. The format is ADME, organism-based. Also on record: dose 1 mg/kg, route intravenous. As to conditions: in vivo.
A short description of data set [19]: Half life in rat at 1 mg/kg, iv administered in PBS buffer at pH 6.8. The data set is classed as ADME, organism-based. Also on record: dose 1 mg/kg, route intravenous. As to conditions: in vivo.
Data set [20] is described as follows: Oral bioavailability in rat at 3 mg/kg administered in PBS buffer at pH 6.8. The data set is classed as ADME, organism-based. The conditions noted are these: in vivo.
Data set [21] in a line: Oral bioavailability in rat at 3 mg/kg administered in sodium acetate buffer at pH 4.63. The format is ADME, organism-based. As to conditions: in vivo.
Data set [22] is described as follows: Cmax in rat at 3 mg/kg, po administered in sodium acetate buffer at pH 4.63. The format is ADME, organism-based. The conditions noted are these: in vivo. Also on record: dose 3 mg/kg, route oral.
A short description of data set [23]: Half life in rat at 1 mg/kg, iv administered in sodium acetate buffer at pH 4.63. The data set is classed as ADME, organism-based. Also on record: dose 1 mg/kg, route intravenous. The conditions noted are these: in vivo.
The nature of data set [24]: Clearance in rat at 1 mg/kg, iv administered in sodium acetate buffer at pH 4.63. The conditions noted are these: in vivo. The format is ADME, organism-based. Also on record: dose 1 mg/kg, route intravenous.
Data set [25] can be described thus: AUC (0 to 8 hrs) in rat at 3 mg/kg, po administered in sodium acetate buffer at pH 4.63. The data set is classed as ADME, organism-based. Also on record: time < 8 hr, dose 3 mg/kg, route oral. The conditions noted are these: plasma.
Data set [26] can be described thus: Tmax in rat at 3 mg/kg, po administered in sodium acetate buffer at pH 4.63. The conditions noted are these: in vivo. The arrangement: dose 3 mg/kg, route oral. The data set is classed as ADME, organism-based.
Data set [27] is described as follows: Volume of distribution at steady state in rat at 1 mg/kg, iv administered in sodium acetate buffer at pH 4.63. The format is ADME, organism-based. Also on record: dose 1 mg/kg, route intravenous. The conditions noted are these: in vivo, read-out: Vdss.
For data set [28], the species on record is Rattus norvegicus. Kind of data set: animal or person. The conditions noted are these: Sprague-Dawley, Plasma, po, read-out: INH.

Some results are limits rather than exact numbers.

What is called IC50 is the concentration that inhibits the measured activity by half. Usually bioavailability stands for dose-corrected exposure relative to a reference, in per cent. Read a low bioavailability as poor availability. A word on the half-life: it is how long it takes for the measured level to halve. Read a low half-life as fast loss. The term clearance denotes the volume of plasma or blood freed of the substance per unit of time. Read a low clearance as inefficient removal. Usually AUC(0-t) stands for exposure summed from dosing to a finite time, without extrapolation to infinity. High values mean more exposure, low ones less exposure. Broadly, the Tmax is the time at which the peak concentration occurs. The term Cmax denotes the maximum level reached in the sampled fluid or tissue.

Sequence of Dipeptidyl peptidase 9 (Q86TI2 whole entry): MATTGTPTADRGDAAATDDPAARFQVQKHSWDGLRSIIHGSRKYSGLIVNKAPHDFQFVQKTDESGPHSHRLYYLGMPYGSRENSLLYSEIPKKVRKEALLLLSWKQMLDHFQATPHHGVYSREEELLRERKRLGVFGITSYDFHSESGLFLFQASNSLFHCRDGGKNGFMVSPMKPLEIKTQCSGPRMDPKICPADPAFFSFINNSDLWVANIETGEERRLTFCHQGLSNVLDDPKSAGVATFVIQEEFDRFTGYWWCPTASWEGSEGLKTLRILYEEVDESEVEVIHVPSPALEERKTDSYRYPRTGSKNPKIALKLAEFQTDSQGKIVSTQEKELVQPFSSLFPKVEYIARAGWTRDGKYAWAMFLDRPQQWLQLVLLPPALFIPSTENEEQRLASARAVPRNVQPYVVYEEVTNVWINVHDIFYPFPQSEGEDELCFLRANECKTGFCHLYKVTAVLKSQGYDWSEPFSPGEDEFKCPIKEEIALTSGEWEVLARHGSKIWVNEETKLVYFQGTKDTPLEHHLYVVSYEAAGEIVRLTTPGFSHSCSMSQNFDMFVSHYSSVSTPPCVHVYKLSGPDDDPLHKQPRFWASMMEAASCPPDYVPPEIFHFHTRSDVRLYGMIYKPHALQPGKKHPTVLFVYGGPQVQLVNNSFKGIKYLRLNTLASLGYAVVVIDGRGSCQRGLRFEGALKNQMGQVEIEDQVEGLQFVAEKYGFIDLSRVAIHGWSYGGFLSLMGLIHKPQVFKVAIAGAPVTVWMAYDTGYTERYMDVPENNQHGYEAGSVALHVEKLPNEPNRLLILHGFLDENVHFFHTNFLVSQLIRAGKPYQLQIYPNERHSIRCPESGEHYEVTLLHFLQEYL
Sequence of Cytochrome P450 2D6 (P10635 whole entry): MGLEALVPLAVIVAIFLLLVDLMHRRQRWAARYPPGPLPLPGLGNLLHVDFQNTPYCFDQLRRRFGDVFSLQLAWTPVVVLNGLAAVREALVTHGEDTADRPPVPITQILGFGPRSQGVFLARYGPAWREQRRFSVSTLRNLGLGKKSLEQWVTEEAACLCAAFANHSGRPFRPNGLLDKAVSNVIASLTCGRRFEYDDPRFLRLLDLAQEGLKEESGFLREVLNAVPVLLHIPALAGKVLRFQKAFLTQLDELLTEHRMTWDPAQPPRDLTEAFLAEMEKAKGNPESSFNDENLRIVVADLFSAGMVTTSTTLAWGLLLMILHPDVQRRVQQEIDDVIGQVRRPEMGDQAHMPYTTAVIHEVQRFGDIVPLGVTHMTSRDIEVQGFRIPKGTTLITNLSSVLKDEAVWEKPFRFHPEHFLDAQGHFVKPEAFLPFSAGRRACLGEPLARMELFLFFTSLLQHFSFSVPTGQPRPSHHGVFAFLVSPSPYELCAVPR
Sequence of Voltage-gated inwardly rectifying potassium channel KCNH2 (Q12809 whole entry): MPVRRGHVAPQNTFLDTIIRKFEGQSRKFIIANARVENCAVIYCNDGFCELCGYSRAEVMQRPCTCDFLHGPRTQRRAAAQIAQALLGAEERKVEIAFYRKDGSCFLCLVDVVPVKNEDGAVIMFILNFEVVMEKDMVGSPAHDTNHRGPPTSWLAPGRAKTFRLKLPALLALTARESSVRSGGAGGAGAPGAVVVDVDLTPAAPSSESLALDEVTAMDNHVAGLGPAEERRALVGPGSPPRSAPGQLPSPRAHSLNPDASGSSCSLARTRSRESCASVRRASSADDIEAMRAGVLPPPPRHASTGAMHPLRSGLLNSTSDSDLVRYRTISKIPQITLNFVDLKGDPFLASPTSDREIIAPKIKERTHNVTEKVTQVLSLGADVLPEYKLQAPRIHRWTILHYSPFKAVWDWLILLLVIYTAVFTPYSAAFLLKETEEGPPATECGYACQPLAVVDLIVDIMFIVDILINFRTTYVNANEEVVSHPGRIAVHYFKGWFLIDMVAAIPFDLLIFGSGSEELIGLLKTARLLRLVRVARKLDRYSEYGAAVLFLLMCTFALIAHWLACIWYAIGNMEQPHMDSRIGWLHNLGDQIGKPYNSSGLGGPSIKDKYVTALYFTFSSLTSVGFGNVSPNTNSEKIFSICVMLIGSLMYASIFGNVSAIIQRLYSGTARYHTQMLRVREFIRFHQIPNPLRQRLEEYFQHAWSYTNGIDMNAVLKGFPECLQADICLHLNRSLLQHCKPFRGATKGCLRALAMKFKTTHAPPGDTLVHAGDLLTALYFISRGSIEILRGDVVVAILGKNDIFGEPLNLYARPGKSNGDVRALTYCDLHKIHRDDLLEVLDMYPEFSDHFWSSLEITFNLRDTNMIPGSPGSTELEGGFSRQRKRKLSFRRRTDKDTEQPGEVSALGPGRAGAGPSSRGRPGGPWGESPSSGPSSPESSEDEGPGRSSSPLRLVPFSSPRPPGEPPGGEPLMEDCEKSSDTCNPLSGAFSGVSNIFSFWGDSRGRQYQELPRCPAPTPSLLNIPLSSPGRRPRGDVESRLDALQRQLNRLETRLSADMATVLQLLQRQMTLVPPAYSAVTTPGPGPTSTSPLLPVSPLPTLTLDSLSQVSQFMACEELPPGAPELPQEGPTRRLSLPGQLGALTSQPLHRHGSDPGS
Sequence of Dipeptidyl peptidase 8 (Q6V1X1 whole entry): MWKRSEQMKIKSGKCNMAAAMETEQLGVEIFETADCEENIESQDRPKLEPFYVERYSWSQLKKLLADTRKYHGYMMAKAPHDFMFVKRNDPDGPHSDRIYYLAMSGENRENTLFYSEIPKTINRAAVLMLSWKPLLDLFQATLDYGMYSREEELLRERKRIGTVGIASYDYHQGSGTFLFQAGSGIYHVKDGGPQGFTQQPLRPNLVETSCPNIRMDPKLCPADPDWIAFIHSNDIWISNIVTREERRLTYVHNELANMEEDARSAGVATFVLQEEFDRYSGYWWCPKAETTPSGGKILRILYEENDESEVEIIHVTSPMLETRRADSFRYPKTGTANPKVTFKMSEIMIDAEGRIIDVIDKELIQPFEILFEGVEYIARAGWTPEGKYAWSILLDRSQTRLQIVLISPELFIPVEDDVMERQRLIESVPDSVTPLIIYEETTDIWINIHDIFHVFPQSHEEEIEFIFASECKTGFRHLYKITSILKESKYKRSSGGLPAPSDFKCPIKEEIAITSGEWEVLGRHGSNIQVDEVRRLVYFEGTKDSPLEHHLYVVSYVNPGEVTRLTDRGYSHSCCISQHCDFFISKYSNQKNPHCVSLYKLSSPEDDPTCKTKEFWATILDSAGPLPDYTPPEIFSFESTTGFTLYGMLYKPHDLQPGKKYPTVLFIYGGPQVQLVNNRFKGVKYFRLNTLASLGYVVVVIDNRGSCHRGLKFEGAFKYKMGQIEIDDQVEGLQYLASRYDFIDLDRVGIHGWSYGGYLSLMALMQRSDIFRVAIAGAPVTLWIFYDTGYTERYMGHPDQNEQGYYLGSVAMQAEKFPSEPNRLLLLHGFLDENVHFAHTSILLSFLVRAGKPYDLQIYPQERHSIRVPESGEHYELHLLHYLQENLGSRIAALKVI

`NC[C@]1(c2cccc(Cl)c2)CC[C@H](n2nc(-c3cccnc3)ccc2=O)CC1`: in [1], the CLint was 51.1 µL/min/mg. The concentration for half-maximal inhibition (IC50) on Dipeptidyl peptidase 8 was more than 30 µM; in [2] it was 4.4 µM; on Dipeptidyl peptidase 9, more than 30 µM; at Cytochrome P450 2D6 it was more than 10 µM. Further, the bioavailability in data set [3] was determined as 92%. Also, the half-life in [4] is 132 min. Also, the inhibition in vivo at 3 mg/kg in the data set filed under Rattus norvegicus [5] is 80%; in the data set listed under Rattus norvegicus [12], 91%. This molecule also displayed a clearance in [6] of 29 mL/min/kg. Moreover, the Papp A→B in data set [7] stood at 8.6 ×10⁻⁶ cm/s. Also, the Vd in data set [8] was 3.9 L/kg. The Papp B→A in data set [9] stood at 13 ×10⁻⁶ cm/s. Further, in [10], the exposure AUC(0-t) at 8 h was 4.01 µM·h. Besides, the time to peak (Tmax) in data set [11] was 1.8 h. In data set [13], this molecule came in with a Cmax of 921 nM.
The molecule `NC[C@]1(c2cccc(Cl)c2)CC[C@H](N2CCn3c(nnc3C(F)(F)F)C2=O)CC1` had a CLint in data set [1] of 21.9 µL/min/mg. In addition, the maximum concentration (Cmax) in data set [14] amounted to 57.8 nM. For the same molecule, in data set [15], the Tmax is 3.3 h. Further, the half-maximal inhibitory concentration (IC50) is more than 30 µM in [2] and 4.5 µM against Cytochrome P450 2D6. In addition, the AUC(0-t) at 8 h in data set [16] was 0.214 µM·h. For the same molecule, the Vd in data set [17] was found to be 11.7 L/kg. This molecule had a clearance in data set [18] of 69 mL/min/kg. In addition, the Papp A→B in data set [7] is 1.6 ×10⁻⁶ cm/s. Also, the Papp B→A in data set [9] was 4.8 ×10⁻⁶ cm/s. The same molecule showed a half-life in data set [19] of 162 min. The molecule also displayed a bioavailability in [20] of 17%.
`NC[C@]1(c2cccc(Cl)c2)CC[C@H](N2CCc3c(nc(C(F)(F)F)nc3C3CC3)C2)CC1`: the IC50 on Dipeptidyl peptidase 8 and on Dipeptidyl peptidase 9 was more than 30 µM throughout.
In the case of `NC[C@]1(c2cccc(Cl)c2)CC[C@H](N2CCn3c(nnc3C(F)(F)F)C2)CC1`, the IC50 at Dipeptidyl peptidase 9 stood at 30 µM.
As for `Cc1ccc(=O)n([C@H]2CC[C@](CN)(c3cccc(Cl)c3)CC2)n1`, on Dipeptidyl peptidase 9, the half-inhibitory concentration (IC50) was more than 30 µM.
In data set [1], `NC[C@]1(c2cccc(Cl)c2)CC[C@H](N2CCc3c(nc(C(F)(F)F)nc3C3CC3)C2=O)CC1` came in with a CLint of 43.4 µL/min/mg. For the same molecule, the values for the IC50 (in data set [2]; at Cytochrome P450 2D6) were 0.26 µM and 10 µM, respectively. The molecule further came in with a bioavailability in [21] of 78%. In [22], this molecule came in with a Cmax of 1900 nM. The same molecule gave a half-life in data set [23] of 138 min. Besides, the clearance in [24] was found to be 9.5 mL/min/kg. In [25], this molecule gave an AUC(0-t) at 8 h of 7.91 µM·h. For the same molecule, the Tmax in data set [26] is 3.3 h. For the same molecule, the Vd in data set [27] was found to be 2.1 L/kg. Moreover, the Papp A→B in data set [7] was 4.4 ×10⁻⁶ cm/s. Further, the Papp B→A in data set [9] worked out at 11 ×10⁻⁶ cm/s.
As for `N[C@@H](CC(=O)N1CCn2c(nnc2C(F)(F)F)C1)Cc1cc(F)c(F)cc1F` [SITAGLIPTIN], the inhibition in vivo at 3 mg/kg amounted to 30% in the data set listed under Rattus norvegicus [5] and 82% in the data set listed under Rattus norvegicus [28].
